Assay results as given in PubChem BioAssay AID1259407 (Chemical Carcinogenesis Research Information System (CCRIS), 2018).
Entries after “also recorded” stand apart in the source; their conditions may differ. Calls of active or inactive are those of the source. No rule for the calls is given here.

Tested on: CCRIS mutagenicity, Ames/micronucleus/aberration tests
Test: CCRIS mutagenicity studies

For O=C(c1ccccc1)C(O)c1ccccc1 (stereo unspecified), the mutagenic call (End Point: IN VITRO CHROMOSOMAL ABERRATIONS, Test System: CHL/IU CELLS, Metabolic Activation: RAT, LIVER, S-9, PHENOBARBITAL AND 5,6-BENZOFLAVONE) was “active; positive (structural changes)”, the mutagenic call (End Point: IN VITRO CHROMOSOMAL ABERRATIONS, Test System: CHO CELLS, Metabolic Activation: NONE) was “active; positive; weak response; precipitation occurred at 500 ug/ml; also recorded: inactive; negative; precipitation occurred at 500 ug/ml” and the mutagenic call (End Point: IN VITRO MICRONUCLEUS, Test System: CHL/IU CELLS, Metabolic Activation: RAT, LIVER, S-9, PHENOBARBITAL AND 5,6-BENZOFLAVONE) was “active; positive”. For the same compound, the mutagenic call (End Point: IN VIVO MICRONUCLEUS, Test System: BLOOD ERYTHROCYTES, Species: MOUSE, Strain/Sex: CD-1/MALE, Route: ORAL) was “inactive; negative”, the mutagenic call (Test System: AMES SALMONELLA TYPHIMURIUM, Strain/Indicator: TA97, Metabolic Activation: HAMSTER LIVER S-9, AROCLOR 1254 (10%), Method: PREINCUBATION) was “inactive; negative” and the mutagenic call (Test System: AMES SALMONELLA TYPHIMURIUM, Strain/Indicator: TA97, Metabolic Activation: NONE, Method: PREINCUBATION) was “inactive; negative”. The mutagenic call (Test System: AMES SALMONELLA TYPHIMURIUM, Strain/Indicator: TA97, Metabolic Activation: NONE, Method: STANDARD PLATE) was “inactive; negative”, the mutagenic call (Test System: AMES SALMONELLA TYPHIMURIUM, Strain/Indicator: TA97, Metabolic Activation: RAT LIVER S-9, AROCLOR 1254 (10%), Method: PREINCUBATION) was “inactive; negative” and the mutagenic call (Test System: AMES SALMONELLA TYPHIMURIUM, Strain/Indicator: TA97, Metabolic Activation: S-9, Method: STANDARD PLATE) was “inactive; negative”. For the same compound, the mutagenic call (Test System: AMES SALMONELLA TYPHIMURIUM, Strain/Indicator: TA98, Metabolic Activation: HAMSTER LIVER S-9, AROCLOR 1254 (10%), Method: PREINCUBATION) was “inactive; negative”, the mutagenic call (Test System: AMES SALMONELLA TYPHIMURIUM, Strain/Indicator: TA98, Metabolic Activation: NONE, Method: PREINCUBATION) was “inactive; negative” and the mutagenic call (Test System: AMES SALMONELLA TYPHIMURIUM, Strain/Indicator: TA98, Metabolic Activation: NONE, Method: STANDARD PLATE) was “inactive; negative”. For the same compound, the mutagenic call (Test System: AMES SALMONELLA TYPHIMURIUM, Strain/Indicator: TA98, Metabolic Activation: RAT LIVER S-9, AROCLOR 1254 (10%), Method: PREINCUBATION) was “inactive; negative”, the mutagenic call (Test System: AMES SALMONELLA TYPHIMURIUM, Strain/Indicator: TA98, Metabolic Activation: RAT, LIVER, S-9, AROCLOR 1254, Method: STANDARD PLATE) was “inactive; negative” and the mutagenic call (Test System: AMES SALMONELLA TYPHIMURIUM, Strain/Indicator: TA98, Metabolic Activation: S-9, Method: STANDARD PLATE) was “inactive; negative”. For the same compound, the mutagenic call (Test System: AMES SALMONELLA TYPHIMURIUM, Strain/Indicator: TA100, Metabolic Activation: HAMSTER LIVER S-9, AROCLOR 1254 (10%), Method: PREINCUBATION) was “inactive; negative”, the mutagenic call (Test System: AMES SALMONELLA TYPHIMURIUM, Strain/Indicator: TA100, Metabolic Activation: NONE, Method: PREINCUBATION) was “inactive; negative” and the mutagenic call (Test System: AMES SALMONELLA TYPHIMURIUM, Strain/Indicator: TA100, Metabolic Activation: NONE, Method: STANDARD PLATE) was “inactive; negative”. The mutagenic call (Test System: AMES SALMONELLA TYPHIMURIUM, Strain/Indicator: TA100, Metabolic Activation: RAT LIVER S-9 AROCLOR 1254 (10%), Method: PREINCUBATION) was “inactive; negative”, the mutagenic call (Test System: AMES SALMONELLA TYPHIMURIUM, Strain/Indicator: TA100, Metabolic Activation: RAT, LIVER, S-9, AROCLOR 1254, Method: STANDARD PLATE) was “inactive; negative” and the mutagenic call (Test System: AMES SALMONELLA TYPHIMURIUM, Strain/Indicator: TA100, Metabolic Activation: S-9, Method: STANDARD PLATE) was “inactive; negative”. The mutagenic call (Test System: AMES SALMONELLA TYPHIMURIUM, Strain/Indicator: TA102, Metabolic Activation: NONE, Method: STANDARD PLATE) was “inactive; negative”, the mutagenic call (Test System: AMES SALMONELLA TYPHIMURIUM, Strain/Indicator: TA102, Metabolic Activation: RAT LIVER S-9, PHENOBARBITAL AND 5,6-BENZOFLAVONE, Method: STANDARD PLATE) was “inactive; negative” and the mutagenic call (Test System: AMES SALMONELLA TYPHIMURIUM, Strain/Indicator: TA102, Metabolic Activation: RAT, LIVER, S-9, AROCLOR 1254, Method: STANDARD PLATE) was “inactive; negative”. The mutagenic call (Test System: AMES SALMONELLA TYPHIMURIUM, Strain/Indicator: TA102, Metabolic Activation: S-9, Method: STANDARD PLATE) was “inactive; negative”, the mutagenic call (Test System: AMES SALMONELLA TYPHIMURIUM, Strain/Indicator: TA1535, Metabolic Activation: HAMSTER LIVER S-9, AROCLOR 1254 (5%), Method: PREINCUBATION) was “inactive; negative” and the mutagenic call (Test System: AMES SALMONELLA TYPHIMURIUM, Strain/Indicator: TA1535, Metabolic Activation: HAMSTER LIVER S-9, AROCLOR 1254 (10%), Method: PREINCUBATION) was “inactive; negative”. For the same compound, the mutagenic call (Test System: AMES SALMONELLA TYPHIMURIUM, Strain/Indicator: TA1535, Metabolic Activation: NONE, Method: PREINCUBATION) was “active; positive”, the mutagenic call (Test System: AMES SALMONELLA TYPHIMURIUM, Strain/Indicator: TA1535, Metabolic Activation: NONE, Method: STANDARD PLATE) was “inactive; negative” and the mutagenic call (Test System: AMES SALMONELLA TYPHIMURIUM, Strain/Indicator: TA1535, Metabolic Activation: RAT LIVER S-9, AROCLOR 1254 (5%), Method: PREINCUBATION) was “inactive; negative”. For the same compound, the mutagenic call (Test System: AMES SALMONELLA TYPHIMURIUM, Strain/Indicator: TA1535, Metabolic Activation: RAT LIVER S-9, AROCLOR 1254 (10%), Method: PREINCUBATION) was “inactive; negative”, the mutagenic call (Test System: AMES SALMONELLA TYPHIMURIUM, Strain/Indicator: TA1535, Metabolic Activation: RAT, LIVER, S-9, AROCLOR 1254, Method: STANDARD PLATE) was “inactive; negative” and the mutagenic call (Test System: AMES SALMONELLA TYPHIMURIUM, Strain/Indicator: TA1537, Metabolic Activation: NONE, Method: STANDARD PLATE) was “inactive; negative”. For the same compound, the mutagenic call (Test System: AMES SALMONELLA TYPHIMURIUM, Strain/Indicator: TA1537, Metabolic Activation: RAT, LIVER, S-9, AROCLOR 1254, Method: STANDARD PLATE) was “inactive; negative”, the mutagenic call (Test System: AMES SALMONELLA TYPHIMURIUM, Strain/Indicator: TA1538, Metabolic Activation: NONE, Method: STANDARD PLATE) was “inactive; negative” and the mutagenic call (Test System: AMES SALMONELLA TYPHIMURIUM, Strain/Indicator: TA1538, Metabolic Activation: RAT, LIVER, S-9, AROCLOR 1254, Method: STANDARD PLATE) was “inactive; negative”. The mutagenic call (Test System: AMES SALMONELLA TYPHIMURIUM, Strain/Indicator: TA2638, Metabolic Activation: RAT LIVER S-9, PHENOBARBITAL AND 5,6-BENZOFLAVONE, Method: STANDARD PLATE) was “inactive; negative”, the mutagenic call (Test System: CHINESE HAMSTER OVARY, Strain/Indicator: CHO-K1-BH4 (HGPRT)/6-THIOGUANINE, Metabolic Activation: NONE, Method: SUSPENSION/PLATE) was “inactive; negative” and the mutagenic call (Test System: CHINESE HAMSTER OVARY, Strain/Indicator: CHO-K1-BH4 (HGPRT)/6-THIOGUANINE, Metabolic Activation: S-9, Method: SUSPENSION/PLATE) was “inactive; negative”. The mutagenic call (Test System: CHINESE HAMSTER OVARY, Strain/Indicator: CHO-K1-BH4 (HGPRT), Metabolic Activation: NONE, Method: SUSPENSION/PLATE) was “inactive; negative”, the mutagenic call (Test System: CHINESE HAMSTER OVARY, Strain/Indicator: CHO-K1-BH4 (HGPRT), Metabolic Activation: RAT, LIVER, S-9, AROCLOR, Method: SUSPENSION/PLATE) was “inactive; negative” and the mutagenic call (Test System: CHINESE HAMSTER V-79, Strain/Indicator: V-79 (HGPRT)/8-AZAGUANINE, Metabolic Activation: NONE, Method: REPLATING) was “inactive; negative”. The mutagenic call (Test System: CHINESE HAMSTER V-79, Strain/Indicator: V-79 (HGPRT)/8-AZAGUANINE, Metabolic Activation: RAT, LIVER, S-9, AROCLOR 1254, Method: REPLATING) was “active; positive”, the mutagenic call (Test System: CHINESE HAMSTER V-79, Strain/Indicator: V-79/6-THIOGUANINE, Metabolic Activation: NONE, Method: REPLATING) was “inactive; negative” and the mutagenic call (Test System: CHINESE HAMSTER V-79, Strain/Indicator: V-79/6-THIOGUANINE, Metabolic Activation: RAT, LIVER, S-9, PHENOBARBITAL AND 5,6-BENZOFLAVONE, Method: REPLATING) was “active; positive”. For the same compound, the mutagenic call (Test System: CHINESE HAMSTER V-79, Strain/Indicator: V-79/OUABAIN, Metabolic Activation: HAMSTER EMBRYO CELL-MEDIATED) was “inactive; negative”, the mutagenic call (Test System: CHINESE HAMSTER V-79, Strain/Indicator: V-79/OUABAIN, Metabolic Activation: NONE) was “inactive; negative” and the mutagenic call (Test System: CHINESE HAMSTER V-79, Strain/Indicator: V-79/OUABAIN, Metabolic Activation: RAT, LIVER, S-15, PHENOBARBITAL AND 5,6-BENZOFLAVONE) was “inactive; negative”. The mutagenic call (Test System: E. COLI, Strain/Indicator: WP2 (PKM101), Metabolic Activation: RAT LIVER S-9, PHENOBARBITAL AND 5,6-BENZOFLAVONE, Method: STANDARD PLATE) was “inactive; negative”, the mutagenic call (Test System: E. COLI, Strain/Indicator: WP2 UVRA (PKM101), Metabolic Activation: RAT LIVER S-9, PHENOBARBITAL AND 5,6-BENZOFLAVONE, Method: STANDARD PLATE) was “inactive; negative” and the mutagenic call (Test System: MOUSE LYMPHOMA, Strain/Indicator: L5178Y (TK+/-)/TRIFLUROTHYMIDINE, Metabolic Activation: NONE, Method: SUSPENSION/PLATE) was “inactive; negative”. For the same compound, the mutagenic call (Test System: MOUSE LYMPHOMA, Strain/Indicator: L5178Y (TK+/-)/TRIFLUROTHYMIDINE, Metabolic Activation: RAT LIVER S-9, AROCLOR 1254, Method: SUSPENSION/PLATE) was “inactive; negative”, the mutagenic call (Test System: MOUSE LYMPHOMA, Strain/Indicator: L5178Y (TK+/TK-), Metabolic Activation: NONE, Method: SUSPENSION/PLATE) was “inactive; negative” and the mutagenic call (Test System: MOUSE LYMPHOMA, Strain/Indicator: L5178Y (TK+/TK-), Metabolic Activation: RAT, LIVER, S-9, Method: SUSPENSION/PLATE) was “inactive; negative”. The mutagenic call (Test System: MOUSE LYMPHOMA, Strain/Indicator: L5178Y (TK+/TK-), Metabolic Activation: S-9, Method: SUSPENSION/PLATE) was “active; positive” and the mutagenic call (Test System: UDS RAT HEPATOCYTES, Strain/Indicator: THY INCORP, Metabolic Activation: NONE, Method: LIQUID SCINTILLATION COUNTING) was “active; positive”.
